Data as given in US11395857B2, “Radiolabeled melanocortin 1 receptor-specific alpha-melanocyte-stimulating hormone analogues for imaging or therapy” (PROVINCIAL HEALTH SERVICES AUTHORITY, priority 2018, dated 2022).
One block for each compound: values may come before it.

How the values were obtained:
B16F10 mouse melanoma = assay: Biodistribution of 177Lu-labeled αMSH analogues in mice bearing B16F10 mouse melanoma; assay type: in vivo, C57BL/6J mice; details: among six αMSH analogues
Protocol: The B16-F10 mouse melanoma cells were cultured and inoculated in mice as described in Example 1.
For biodistribution studies, approximately 1-2 MBq of ^177Lu-labeled αMSH analogues via tail vein under anesthesia. At 1, 4, 24, and 120 h p.i., the mice were euthanized by CO2 inhalation. Organs/tissues were harvested and the radioactivity was measured as described in Example 1.

[1] = Biodistribution of 177Lu-labeled αMSH analogues in mice bearing SK-MEL-1 human melanoma; details: male, mouse, total radioactivity; for tissue to tissue ratio at 1 h: 1 h p.i.; for tissue to tissue ratio at 1 h / tissue to tissue ratio at 4 h / tissue to tissue ratio at 24 h / tissue to tissue ratio at 120 h: NRG mice, SK-MEL-1 melanoma; for tissue to tissue ratio at 4 h: 4 h p.i.; for tissue to tissue ratio at 24 h: 24 h p.i.; for tissue to tissue ratio at 120 h: 120 h p.i.
Protocol: The SK-MEL-1 human melanoma cell line (HTB-67) was obtained commercially from ATCC. SK-MEL-1 cells were cultured in Eagle's Minimum Essential Medium (StemCell Technologies) under the same conditions as described in Example 1. Immunodeficient NOD.Cg-Rag1tm1Mom I12rgtm1Wjl/SzJ (NRG) male mice were obtained from an in-house breeding colony at the BC Cancer Research Centre. For tumor implantation, male NRG mice were anesthetized by inhalation with 2% isoflurane, and 5 million SK-MEL-1 cells were inoculated subcutaneously on the right dorsal flank. Mice were used for imaging or biodistribution studies when the tumors reached 6-8 mm in diameter in 16-20 days.
Biodistribution studies were performed as described in Example 3.

[2] = NRG (NOD.Cg-Rag1tm1Mom I12rgtm1Wjl/SzJ), fat, iv
[3] = NRG (NOD.Cg-Rag1tm1Mom I12rgtm1Wjl/SzJ), seminal glands, iv
[4] = NRG (NOD.Cg-Rag1tm1Mom Il2rgtm1Wjl/SzJ), SK-MEL-1 tumour
[5] = NRG (NOD.Cg-Rag1tm1Mom Il2rgtm1Wjl/SzJ), adrenal glands
[6] = NRG (NOD.Cg-Rag1tm1Mom Il2rgtm1Wjl/SzJ), blood
[7] = NRG (NOD.Cg-Rag1tm1Mom Il2rgtm1Wjl/SzJ), bone
[8] = NRG (NOD.Cg-Rag1tm1Mom Il2rgtm1Wjl/SzJ), brain
[9] = NRG (NOD.Cg-Rag1tm1Mom Il2rgtm1Wjl/SzJ), heart
[10] = NRG (NOD.Cg-Rag1tm1Mom Il2rgtm1Wjl/SzJ), intestine
[11] = NRG (NOD.Cg-Rag1tm1Mom Il2rgtm1Wjl/SzJ), kidneys
[12] = NRG (NOD.Cg-Rag1tm1Mom Il2rgtm1Wjl/SzJ), liver
[13] = NRG (NOD.Cg-Rag1tm1Mom Il2rgtm1Wjl/SzJ), lungs
[14] = NRG (NOD.Cg-Rag1tm1Mom Il2rgtm1Wjl/SzJ), muscle
[15] = NRG (NOD.Cg-Rag1tm1Mom Il2rgtm1Wjl/SzJ), pancreas
[16] = NRG (NOD.Cg-Rag1tm1Mom Il2rgtm1Wjl/SzJ), spleen
[17] = NRG (NOD.Cg-Rag1tm1Mom Il2rgtm1Wjl/SzJ), stomach
[18] = NRG (NOD.Cg-Rag1tm1Mom Il2rgtm1Wjl/SzJ), testes
[19] = NRG (NOD.Cg-Rag1tm1Mom Il2rgtm1Wjl/SzJ), thyroid
[20] = NRG (NOD.Cg-Rag1tm1Mom Il2rgtm1Wjl/SzJ), tumour/blood
[21] = NRG (NOD.Cg-Rag1tm1Mom Il2rgtm1Wjl/SzJ), tumour/kidney
[22] = NRG (NOD.Cg-Rag1tm1Mom Il2rgtm1Wjl/SzJ), tumour/muscle
[23] = NRG (NOD.Cg-Rag1tm1Mom Il2rgtm1Wjl/SzJ), urine

Compound: CCCC[C@H](NC(=O)CN1CCC(NC(=O)[C@H](CCCCNC(=O)CN2CCN(CC(=O)O)CCN(CC(=O)O)CCN(CC(=O)O)CC2)NC(=O)[C@H](CCC(=O)O)NC(=O)CCCc2ccc(I)cc2)CC1)C(=O)N[C@H]1CC(=O)NCCCC[C@@H](C(N)=O)N(C)C(=O)[C@H](Cc2c[nH]c3ccccc23)NC(=O)[C@H](CCCNC(=N)N)N(C)C(=O)[C@@H](Cc2ccccc2)NC(=O)[C@H](Cc2c[nH]cn2)NC1=O [CCZ01118, [4-(p-iodophenyl)butanoyl]-Glu-Lys(DOTA)-Pip-Nle-cyclo[Asp-His-D-Phe-N-Me-Arg-Trp-N-Me-Lys]-NH2]
Improvement in tumour uptake retention (B16F10 mouse melanoma): showed the most improvement in tumour uptake retention

tissue uptake at 1 h [1, 2]: 2.4 ± 0.39 %ID/g
tissue uptake at 4 h [1, 2]: 2.69 ± 0.38 %ID/g
tissue uptake at 24 h [1, 2]: 2.1 ± 0.53 %ID/g
tissue uptake at 120 h [1, 2]: 1.13 ± 0.55 %ID/g
tissue uptake at 1 h [1, 3]: 1.81 ± 0.6 %ID/g
tissue uptake at 4 h [1, 3]: 1.66 ± 0.51 %ID/g
tissue uptake at 24 h [1, 3]: 1.22 ± 0.11 %ID/g
tissue uptake at 120 h [1, 3]: 0.44 ± 0.12 %ID/g
tissue uptake at 1 h [1, 4]: 6.62 ± 1.37 %ID/g
tissue uptake at 4 h [1, 4]: 9.46 ± 1.59 %ID/g
tissue uptake at 24 h [1, 4]: 30.5 ± 2.72 %ID/g
tissue uptake at 120 h [1, 4]: 26.5 ± 4.52 %ID/g
tissue uptake at 1 h [1, 5]: 6.47 ± 2.97 %ID/g
tissue uptake at 4 h [1, 5]: 5.69 ± 2.19 %ID/g
tissue uptake at 24 h [1, 5]: 5.66 ± 1.07 %ID/g
tissue uptake at 120 h [1, 5]: 4.04 ± 1.06 %ID/g
tissue uptake at 1 h [1, 6]: 32 ± 5.85 %ID/g
tissue uptake at 4 h [1, 6]: 22.7 ± 1.5 %ID/g
tissue uptake at 24 h [1, 6]: 14.7 ± 0.98 %ID/g
tissue uptake at 120 h [1, 6]: 1.93 ± 0.4 %ID/g
tissue uptake at 1 h [1, 7]: 1.98 ± 0.8 %ID/g
tissue uptake at 4 h [1, 7]: 1.38 ± 0.29 %ID/g
tissue uptake at 24 h [1, 7]: 1.21 ± 0.2 %ID/g
tissue uptake at 120 h [1, 7]: 0.49 ± 0.17 %ID/g
tissue uptake at 1 h [1, 8]: 0.49 ± 0.06 %ID/g
tissue uptake at 4 h [1, 8]: 0.39 ± 0.05 %ID/g
tissue uptake at 24 h [1, 8]: 0.32 ± 0.03 %ID/g
tissue uptake at 120 h [1, 8]: 0.13 ± 0.02 %ID/g
tissue uptake at 1 h [1, 9]: 7.94 ± 1.58 %ID/g
tissue uptake at 4 h [1, 9]: 5.71 ± 0.51 %ID/g
tissue uptake at 24 h [1, 9]: 4.57 ± 0.51 %ID/g
tissue uptake at 120 h [1, 9]: 1.4 ± 0.25 %ID/g
tissue uptake at 1 h [1, 10]: 3.1 ± 1 %ID/g
tissue uptake at 4 h [1, 10]: 2.26 ± 0.56 %ID/g
tissue uptake at 24 h [1, 10]: 1.89 ± 0.29 %ID/g
tissue uptake at 120 h [1, 10]: 0.54 ± 0.1 %ID/g
tissue uptake at 1 h [1, 11]: 12.5 ± 3.49 %ID/g
tissue uptake at 4 h [1, 11]: 9.78 ± 1.28 %ID/g
tissue uptake at 24 h [1, 11]: 9.72 ± 1.38 %ID/g
tissue uptake at 120 h [1, 11]: 4.08 ± 0.78 %ID/g
tissue uptake at 1 h [1, 12]: 7.36 ± 1.58 %ID/g
tissue uptake at 4 h [1, 12]: 7.11 ± 1.5 %ID/g
tissue uptake at 24 h [1, 12]: 8.35 ± 1.86 %ID/g
tissue uptake at 120 h [1, 12]: 4.38 ± 1.08 %ID/g
tissue uptake at 1 h [1, 13]: 17.6 ± 5.68 %ID/g
tissue uptake at 4 h [1, 13]: 11.8 ± 2.51 %ID/g
tissue uptake at 24 h [1, 13]: 9.06 ± 1.04 %ID/g
tissue uptake at 120 h [1, 13]: 2.35 ± 0.54 %ID/g
tissue uptake at 1 h [1, 14]: 2.13 ± 0.4 %ID/g
tissue uptake at 4 h [1, 14]: 1.96 ± 0.3 %ID/g
tissue uptake at 24 h [1, 14]: 1.5 ± 0.19 %ID/g
tissue uptake at 120 h [1, 14]: 0.31 ± 0.07 %ID/g
tissue uptake at 1 h [1, 15]: 3.09 ± 0.53 %ID/g
tissue uptake at 4 h [1, 15]: 2.55 ± 0.15 %ID/g
tissue uptake at 24 h [1, 15]: 2.27 ± 0.34 %ID/g
tissue uptake at 120 h [1, 15]: 0.7 ± 0.13 %ID/g
tissue uptake at 1 h [1, 16]: 5.65 ± 1.09 %ID/g
tissue uptake at 4 h [1, 16]: 4.21 ± 1.31 %ID/g
tissue uptake at 24 h [1, 16]: 6.19 ± 1 %ID/g
tissue uptake at 120 h [1, 16]: 6.86 ± 2.08 %ID/g
tissue uptake at 1 h [1, 17]: 1.03 ± 0.45 %ID/g
tissue uptake at 4 h [1, 17]: 1.02 ± 0.53 %ID/g
tissue uptake at 24 h [1, 17]: 1.44 ± 0.28 %ID/g
tissue uptake at 120 h [1, 17]: 0.47 ± 0.12 %ID/g
tissue uptake at 1 h [1, 18]: 4.23 ± 0.94 %ID/g
tissue uptake at 4 h [1, 18]: 5.09 ± 0.82 %ID/g
tissue uptake at 24 h [1, 18]: 4.89 ± 0.87 %ID/g
tissue uptake at 120 h [1, 18]: 3.03 ± 0.37 %ID/g
tissue uptake at 1 h [1, 19]: 7.45 ± 1.35 %ID/g
tissue uptake at 4 h [1, 19]: 6.83 ± 0.84 %ID/g
tissue uptake at 24 h [1, 19]: 11.6 ± 1.26 %ID/g
tissue uptake at 120 h [1, 19]: 12.4 ± 2.26 %ID/g
tissue to tissue ratio at 1 h [1, 20]: 0.21 ± 0.02
tissue to tissue ratio at 4 h [1, 20]: 0.42 ± 0.04
tissue to tissue ratio at 24 h [1, 20]: 2.08 ± 0.26
tissue to tissue ratio at 1 h [1, 21]: 0.54 ± 0.07
tissue to tissue ratio at 4 h [1, 21]: 0.96 ± 0.04
tissue to tissue ratio at 24 h [1, 21]: 3.19 ± 0.46
tissue to tissue ratio at 120 h [1, 21]: 6.57 ± 0.71
tissue to tissue ratio at 1 h [1, 22]: 3.11 ± 0.29
tissue to tissue ratio at 4 h [1, 22]: 4.85 ± 0.53
tissue to tissue ratio at 24 h [1, 22]: 20.5 ± 2.51
tissue to tissue ratio at 120 h [1, 22]: 91.3 ± 35.8
excreta dose per gram or mL at 1 h [1, 23]: 51 ± 21.8 %ID/g
excreta dose per gram or mL at 4 h [1, 23]: 11.2 ± 6.54 %ID/g
excreta dose per gram or mL at 24 h [1, 23]: 20.4 ± 7.69 %ID/g
excreta dose per gram or mL at 120 h [1, 23]: 6.46 ± 1.57 %ID/g
Compound: CCCC[C@H](NC(=O)CN1CCC(NC(=O)[C@H](CCCCNC(=O)CN2CCN(CC(=O)O)CCN(CC(=O)O)CCN(CC(=O)O)CC2)NC(=O)CNC(=O)CCCc2ccc(I)cc2)CC1)C(=O)N[C@H]1CC(=O)NCCCC[C@@H](C(N)=O)N(C)C(=O)[C@H](Cc2c[nH]c3ccccc23)NC(=O)[C@H](CCCNC(=N)N)N(C)C(=O)[C@@H](Cc2ccccc2)NC(=O)[C@H](Cc2c[nH]cn2)NC1=O [^177Lu-labeled CCZ01148, metal not drawn]
